Measurements taken from BindingDB's records for doi:10.1016/j.bmc.2008.10.052 (Universidade Federal De Santa Maria, 2008).

Biological target: Cruzipain (Trypanosoma cruzi, UniProt P25779)
Assay: Inhibition of Trypanosoma cruzi C-terminal truncated cruzain expressed in DH5alpha Escherichia coli by well-microplate spectrophotometry

Sequence of Cruzipain (P25779 whole entry, the tested form may be a part): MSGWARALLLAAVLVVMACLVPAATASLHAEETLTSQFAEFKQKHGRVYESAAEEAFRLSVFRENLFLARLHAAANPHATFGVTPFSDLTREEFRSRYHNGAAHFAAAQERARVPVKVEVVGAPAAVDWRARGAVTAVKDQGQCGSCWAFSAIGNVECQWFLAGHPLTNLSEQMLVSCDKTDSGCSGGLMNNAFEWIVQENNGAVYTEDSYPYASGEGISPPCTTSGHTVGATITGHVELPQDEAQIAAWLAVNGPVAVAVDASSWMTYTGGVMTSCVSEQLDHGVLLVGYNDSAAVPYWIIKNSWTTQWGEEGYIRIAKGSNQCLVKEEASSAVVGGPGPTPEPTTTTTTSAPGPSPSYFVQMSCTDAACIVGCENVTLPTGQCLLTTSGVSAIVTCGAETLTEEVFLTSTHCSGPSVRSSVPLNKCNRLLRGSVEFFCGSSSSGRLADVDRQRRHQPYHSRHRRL

IC50 [µM] | SMILES
> 150 | FC(F)(F)c1ccnc(N=NCc2ccccc2)n1 [2-(N'-Benzylidenehydrazino)-4-trifluoromethylpyrimidine]
> 100 | Cc1ccc(CN=Nc2nccc(C(F)(F)F)n2)cc1 [2-(N'-4-Methyl-benzylidenehydrazino)-4-trifluoromethyl-pyrimidine]
> 150 | COc1ccccc1CN=Nc1nc(C)cc(C(F)(F)F)n1 [2-(N'-2-Methoxy-benzylidenehydrazino)-6-methyl-4-trifluoromethyl-pyri-midine]
> 100 | COc1ccc(CN=Nc2nccc(C(F)(F)F)n2)cc1 [2-(N'-4-methoxy-benzylidenehydrazino)-4-trifluoromethyl-pyrimidine]
> 100 | Cc1cc(C(F)(F)F)nc(N=NCc2ccccc2C)n1 [2-(N'-2-Methyl-benzylidenehydrazino)-6-methyl-4-trifluoromethyl-pyrimidine]
100 | Cc1cc(C(F)(F)F)nc(N=NCc2ccc(Cl)cc2)n1 [2-(N'-4-chloro-benzylidenehydrazino)-6-methyl-4-trifluoro-methyl-pyrimidine]
100 | O=[N+]([O-])c1ccc(CN=Nc2nccc(C(F)(F)F)n2)cc1 [2-(N'-4-Nitro-benzylidenehydrazino)-4-trifluoromethylpyrimidine]
> 100 | Cc1ccccc1CN=Nc1nccc(C(F)(F)F)n1 [2-(N'-2-Methyl-benzylidenehydrazino)-4-trifluoromethyl-pyrimidine]
